Common to all, as to assay: relative viability (nuclei count vs DMSO), 5 days (fraction); higher = more cells survive
Compound in the test “Venetoclax + Foretinib”: CC1(C)CCC(CN2CCN(c3ccc(C(=O)NS(=O)(=O)c4ccc(NCC5CCOCC5)c([N+](=O)[O-])c4)c(Oc4cnc5[nH]ccc5c4)c3)CC2)=C(c2ccc(Cl)cc2)C1 [Venetoclax] + COc1cc2c(Oc3ccc(NC(=O)C4(C(=O)Nc5ccc(F)cc5)CC4)cc3F)ccnc2cc1OCCCN1CCOCC1 [Foretinib] (partner 0.25 µM)
The method, boiled down: (§1)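 Values are medians from duplicate plates. Each reflects relative viability, defined as the nuclei count of treated wells over that of vehicle wells. Lung cancer cell lines in 1536-well plates were pin-tool dosed one day after seeding with one drug alone or with a fixed anchor-drug dose plus five library-drug doses (not always all listed) in √10 steps, then fixed, stained and imaged at 4× after 5 days.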

Compound in the test “Selumetinib + Pictilisib”: Cn1cnc2c(F)c(Nc3ccc(Br)cc3Cl)c(C(=O)NOCCO)cc21 [Selumetinib] + CS(=O)(=O)N1CCN(Cc2cc3nc(-c4cccc5[nH]ncc45)nc(N4CCOCC4)c3s2)CC1 [Pictilisib] (partner 1 µM)
Put shortly: as §1

Compound in the test “Selumetinib + Crizotinib”: Cn1cnc2c(F)c(Nc3ccc(Br)cc3Cl)c(C(=O)NOCCO)cc21 [Selumetinib] + C[C@@H](Oc1cc(-c2cnn(C3CCNCC3)c2)cnc1N)c1c(Cl)ccc(F)c1Cl [Crizotinib] (partner 1 µM)
Put shortly:
as §1

Compound in the test “Selumetinib + Linsitinib”: Cn1cnc2c(F)c(Nc3ccc(Br)cc3Cl)c(C(=O)NOCCO)cc21 [Selumetinib] + C[C@]1(O)C[C@@H](c2nc(-c3ccc4ccc(-c5ccccc5)nc4c3)c3c(N)nccn32)C1 [Linsitinib] (partner 1 µM)
The method, boiled down:
as §1

Turning to UMC-11, the relative viability with Venetoclax + Foretinib (first compound 0.01 µM) is 1.08; in the test with Venetoclax + Foretinib (first compound 0.03162 µM), 1.05; with Venetoclax + Foretinib (first compound 0.1 µM) it was 1.01; in the test with Venetoclax + Foretinib (first compound 0.3162 µM), 0.961; with Venetoclax + Foretinib (first compound 1 µM), 0.913; with Selumetinib + Pictilisib (first compound 0.02 µM) it was 0.827. In addition, the relative viability with Selumetinib + Pictilisib (first compound 0.06325 µM) was found to be 0.772; with Selumetinib + Pictilisib (first compound 0.2 µM) it was 0.869; with Selumetinib + Pictilisib (first compound 0.6325 µM), 0.922; with Selumetinib + Crizotinib (first compound 0.02 µM), 0.686; in the test with Selumetinib + Crizotinib (first compound 0.06325 µM), 0.594; in the test with Selumetinib + Crizotinib (first compound 0.2 µM), 0.515. Also, the relative viability with Selumetinib + Crizotinib (first compound 0.6325 µM) turned out to be 0.645; with Selumetinib + Linsitinib (first compound 0.02 µM) it was 0.965; with Selumetinib + Linsitinib (first compound 0.06325 µM) it was 1.08; with Selumetinib + Linsitinib (first compound 0.2 µM) it was 0.972; with Selumetinib + Linsitinib (first compound 0.6325 µM), 0.984.
